In patent publication US11286268B1, “EIF4E-inhibiting compounds and methods” (EFFECTOR THERAPEUTICS, INC., priority 2019, dated 2022):
Where two headings read alike, the source gives them in different places.

Biological target: recombinant eIF4E (Homo sapiens (Human), UniProt P06730)
Experiment: Fluorescence polarization competition assay for eIF4E binding potency
How it was run: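 Protein and fluorescent cap-analog probe (EDA-m7GDP-ATTO-550) were mixed first for 5 min, after which serially diluted compound was added to final 75 nM eIF4E, 20 nM probe, 1% DMSO. Reactions equilibrated 30 min at room temperature before polarization was measured.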

[1] = inhibition of eIF4E/EDA-m7GDP-ATTO-550 binding, calculated IC50 values, Table 4B, read-out: IC50
[2] = fluorescence polarization competition, 75 nM recombinant eIF4E, 20 nM EDA-m7GDP-ATTO-550, IC50 class, read-out: elF4E FP
[3] = inhibition of eIF4E/EDA-m7GDP-ATTO-550 binding by 50%, Table 4B calculated values, read-out: IC50

recombinant eIF4E, sequence (P06730 whole entry): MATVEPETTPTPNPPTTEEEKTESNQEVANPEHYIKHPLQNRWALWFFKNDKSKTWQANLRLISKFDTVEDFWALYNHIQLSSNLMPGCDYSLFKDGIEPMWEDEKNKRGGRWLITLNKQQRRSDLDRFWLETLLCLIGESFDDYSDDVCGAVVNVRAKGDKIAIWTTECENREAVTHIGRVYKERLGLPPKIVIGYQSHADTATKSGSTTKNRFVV

Row | Structure (SMILES) | IC50 [1] [µM] | IC50 [2] [µM] | IC50 [3] [µM]
1 | Cc1nc2cc(C(F)(F)F)c(CN(C)C)c(C#N)c2c(=O)n1CCOc1ccc(Cl)cc1-c1ccnc2ccsc12 [compound 2016] | 0.613 |  | 
2 | Cc1nc2cc(C(F)(F)F)c(C3CCN(C)CC3)cc2c(=O)n1CCOc1ccc(Cl)cc1-c1ccnc2c(C(=O)O)csc12 [compound 881] |  | < 0.05 | 0.0204
3 | COc1ncc(C#N)c2c(=O)n(CCOc3ccc(Cl)cc3-c3ccc(C)c4c(C(=O)O)csc34)c(C)nc12 [compound 726] |  | 0.05 to 1 | 0.053
4 | Cc1cc(-c2cc(Cl)ccc2OCCn2c(C)nc3cc(C(F)(F)F)c(Cl)c(C#N)c3c2=O)c2scc(C(=O)O)c2n1 [compound 558] |  | < 0.05 | 0.0272
5 | Cc1cc(-c2cc(Cl)ccc2OCCn2c(C)nc3cc(C(F)(F)F)c(C#N)nc3c2=O)c2scc(C(=O)O)c2n1 [compound 785] |  | < 0.05 | 0.0182
6 | Cc1nc2cnc(N(C)C3CCN(C)C3)c(C#N)c2c(=O)n1CCOc1ccc(Cl)cc1-c1ccnc2c(C(=O)O)csc12 (stereo not shown) [compound 1323] | 0.073 |  | 
7 | Cc1cc(-c2cc(Cl)ccc2OCCn2c(C)nc3cc(C(F)(F)F)c(C(C)(C)O)nc3c2=O)c2scc(C(=O)O)c2n1 [compound 938] |  | < 0.05 | 0.00244
8 | Cc1cc(-c2cc(Cl)ccc2OCCn2c(C)nc3c(C)nc(-c4cc(F)ccc4F)c(C#N)c3c2=O)c2scc(C(=O)O)c2n1 [compound 998] |  | < 0.05 | 0.0451
9 | N#Cc1cc2c(=O)n(CCOc3ccc(Cl)cc3-c3cc(C(=O)O)cc(F)c3F)cnc2cn1 [compound 89] |  | > 1 | > 3
10 | CCC(F)(F)CN1CCC(N(C)c2ncc3nc(C)n(COCc4ccc(Cl)cc4-c4ccnc5c(C(=O)O)csc45)c(=O)c3c2C#N)CC1 [compound 1168] |  | < 0.05 | 0.013
11 | Cc1nc2cnc(C3(C)CCN(C)CC3)c(C#N)c2c(=O)n1CCOc1ccc(Cl)cc1-c1ccnc2c(C(=O)O)csc12 [compound 1415] | 0.0168 |  | 
12 | Cc1cc(-c2cc(Cl)ccc2OCCn2c(C)nc3cnc(N(C)C4CCN(CC(C)(F)F)CC4)c(C#N)c3c2=O)c2scc(C(=O)O)c2n1 [compound 1563] | 0.013 |  | 
13 | O=C(O)c1cccc(-c2cc(Cl)ccc2OCCc2cnc(C(F)F)c3nc(Nc4ccccc4)[nH]c(=O)c23)c1 [compound 173] |  | 0.05 to 1 | 0.141
14 | CCc1cc(-c2cc(Cl)ccc2OCCn2c(C)nc3cnc(N)c(C#N)c3c2=O)c2scc(C(=O)O)c2n1 [compound 1071] |  | 0.05 to 1 | 0.054
15 | Cc1nc2cnc(N(C)C3CCN(C4CC(F)(F)C4)CC3)c(C#N)c2c(=O)n1CC#Cc1ccc(Cl)cc1-c1ccnc2c(C(=O)NS(=O)(=O)c3cccnc3)csc12 [compound 1831] | 0.005 |  | 
16 | O=C(O)c1cccc(-c2cc(Cl)ccc2OCCn2c(C(F)F)nc3cnc(Cl)cc3c2=O)c1 [compound 2008] | 0.0961 |  | 
17 | Cc1cc(-c2cc(Cl)ccc2OCCn2c(C)nc3cc(C(F)(F)F)c(N4CCN(CCF)CC4)c(C#N)c3c2=O)c2scc(C(=O)O)c2n1 [compound 430] |  | < 0.05 | 0.009
18 | N#Cc1cc2c(=O)n(CCOc3ccc(Cl)cc3-c3cccc(-c4nn[nH]n4)c3)cnc2cn1 [compound 128] |  | 0.05 to 1 | 0.97
19 | Cc1nc2cc(Cl)c(C(F)F)c(C#N)c2c(=O)n1CCOc1ccc(Cl)cc1-c1ccnc2c(C(=O)O)csc12 [compound 1951] | 0.0199 |  | 
20 | Cc1nc2cnc(/C=C/CN(C)CC(F)(F)F)c(C#N)c2c(=O)n1CCOc1ccc(Cl)cc1-c1ccnc2c(C(=O)O)csc12 [compound 1898] | 0.0613 |  | 
21 | Cc1cc(-c2cc(Cl)ccc2OCCn2c(C)nc3cc(C(F)(F)F)c(-c4ccn(C)n4)c(C#N)c3c2=O)c2scc(C(=O)O)c2n1 [compound 779] |  | < 0.05 | 0.00954

Row | Structure (SMILES) | IC50 [1] [µM] | IC50 [2] [µM] | IC50 [3] [µM]
22 | Cc1ccc(-c2cc(Cl)ccc2OCCn2c(C)nc3c(N(C)C)ncc(C#N)c3c2=O)c2scc(C(=O)O)c12 [compound 725] |  | < 0.05 | 0.0382
23 | Cc1cc(-c2cc(Cl)ccc2OCCn2c(C)nc3cc(N4C[C@@H](C)N(C)[C@@H](C)C4)c(F)c(C#N)c3c2=O)c2sc(C)c(C(=O)O)c2n1 [1090b] |  |  | 0.503
24 | Cc1cc(-c2cc(Cl)ccc2OCCn2c(C)nc3cc(C(F)(F)F)c(S(C)(=O)=O)nc3c2=O)c2scc(C(=O)O)c2n1 [compound 782] |  | < 0.05 | 0.00403
25 | Cc1nc2c(F)cc(S(C)(=O)=O)c(C#N)c2c(=O)n1CCOc1ccc(Cl)cc1-c1ccnc2c(C(=O)O)csc12 [compound 293] |  | 0.05 to 1 | 0.0639
26 | C=Cc1c(C(=O)O)cccc1-c1cc(Cl)ccc1OCCn1c(C)nc2cc(C(F)(F)F)cc(C#N)c2c1=O [compound 169] |  | 0.05 to 1 | 0.234
27 | Cc1nc2cnc(N3CCN(C4(C)CC4)CC3)c(C#N)c2c(=O)n1CCOc1ccc(Cl)cc1-c1ccnc2c(C(=O)O)csc12 [compound 1365] | 0.0341 |  | 
28 | Cc1cc(-c2cc(Cl)ccc2OCCn2c(C)nc3cc(C(F)(F)F)c(C)c(C#N)c3c2=O)c2scc(C(=O)O)c2n1 [compound 363] |  | < 0.05 | 0.0228
29 | Cc1cc(-c2cc(Cl)ccc2OCCn2c(C)nc3c(C4CC4)ncc(C#N)c3c2=O)c2scc(C(=O)O)c2n1 [compound 339] |  | < 0.05 | 0.0268
30 | COC(=O)c1csc2c(-c3cc(Cl)ccc3C#CCn3c(C)nc4cnc(N(C)C5CCN(CC(F)(F)F)CC5)c(C#N)c4c3=O)ccnc12 [compound 1195] | 0.0131 | < 0.05 | 
31 | COc1ccc(OCCn2cnc3cnc(C#N)cc3c2=O)c(-c2cccc(C(=O)O)c2)c1 [compound 124] |  | > 1 | 9.13
32 | Cc1nc2cc(Cl)c(F)c(C#N)c2c(=O)n1CCOc1ccc(Cl)cc1-c1ccnc2c(C(=O)O)csc12 [compound 242] |  | < 0.05 | 0.0203
33 | Cc1cc(-c2cc(Cl)ccc2OCCn2c(C)nc3cc(Cl)c(N4CC(C(F)(F)F)C4)c(C#N)c3c2=O)c2scc(C(=O)O)c2n1 [compound 689] |  | < 0.05 | 0.0115
34 | Cc1c(C(F)(F)F)cc(C#N)c2c(=O)n(CCOc3ccc(Cl)cc3-c3ccnc4c(C(=O)O)csc34)c(C)nc12 [compound 416] |  | < 0.05 | 0.023
35 | Cc1cc(-c2cc(Cl)ccc2OCCn2c(C)nc3cc(Cl)c(N4CCC(F)(F)C4)c(C#N)c3c2=O)c2scc(C(=O)O)c2n1 [compound 690] |  | < 0.05 | 0.00595
36 | Cc1cc(-c2cc(Cl)ccc2OCCn2c(C)nc3cc(C(F)(F)F)c(-c4cncc(C)c4C)c(C#N)c3c2=O)c2scc(C(=O)O)c2n1 [compound 903] |  | < 0.05 | 0.0112
37 | Cc1c(F)c2cc(C#N)cc(C#N)c2c(=O)n1CCOc1ccc(Cl)cc1-c1ccnc2c(C(=O)O)csc12 [compound 273] |  | < 0.05 | 0.0302
38 | Cc1cc(-c2cc(Cl)ccc2OCCn2c(C)nc3ccc(OC(F)(F)F)c(C#N)c3c2=O)c2scc(C(=O)O)c2n1 [compound 583] |  | < 0.05 | 0.0159
39 | Cc1nc2cc(C(F)(F)F)cc(C#N)c2c(=O)n1CCOc1ccc(Cl)cc1-c1ccc(C(=O)O)c(C(=O)O)c1 [compound 158] |  | < 0.05 | 0.0483
40 | COC(=O)c1csc2c(-c3cc(Cl)ccc3OCCn3c(C)nc4cc(C(F)(F)F)cc(C#N)c4c3=O)ccnc12 [compound 1900] | 2.7 |  | 
41 | Cc1cc(-c2cc(Cl)ccc2OCCn2c(C)nc3cc(C(F)(F)F)c(Oc4cccnc4)c(C#N)c3c2=O)c2scc(C(=O)O)c2n1 [compound 1035] |  | < 0.05 | 
